From article PMC12040169 (PLOS Biology, 2025)

Test: in vitro
Conditions: human, hela cells, % viability

SMILES | viability at 28.5 h, 10 µM [%]
O=C(c1cc(F)c(F)cc1F)N1CCC2(CCCN(CCN3CCOCC3)C2)C1 (stereo not drawn) [CBK132015] | 82.8
CCOC(=O)C1CCCN(Cc2cc(F)cc(C(C)=O)c2O)C1 (stereo not drawn) [CBK304020] | 87.1
CN(C)CCN(Cc1cccs1)Cc1cc(Cl)ccc1O [CBK282847] | 86.2
C#CCNS(=O)(=O)c1cccc(C(=O)N2CCOC(CC(=O)OC)C2)c1 (stereo not drawn) [CBK306138] | 90.8
O=C(O)C1CSC(c2cc3ccccc3o2)N1 (stereo not drawn) [CBK019502] | 93.7
O=C(O)c1cc2cc(F)ccc2[nH]1 [CBK017929] | 86.3
COc1ccc([C@@]23CC[C@@H](NC(=O)c4ccc(F)c(F)c4)C[C@@H]2CN(C)C3)cc1OC [CBK083504T] | 90.2
CC(C(=O)N1CCCC(COc2ccc(F)cc2)C1)n1ccnc1 (stereo not drawn) [CBK282027] | 85.8
Cc1ccc(-n2ncc3c(=O)n(Cc4ccccc4C)cnc32)c(C)c1 [CBK287695] | 107
COc1ccccc1-c1nccnc1N(C)Cc1ccccc1 [CBK036774] | 102
Cc1ccc(S(=O)(=O)NC(C)(C)C)cc1C(=O)N(C)Cc1cnn(C)c1 [CBK305433] | 86.9
COc1cc2c(cc1OC)C(CCN1CCN(c3ccc(Cl)cc3)CC1)OCC(C)(C)C2 (stereo not drawn) [CBK024051C] | 111
O=C(Nc1nc(-c2cccnc2)cs1)c1ccccc1 [CBK287569] | 91.3
O=C(NCC1CCCN1)c1cnn(-c2ccc(Cl)cc2)c1C(F)(F)F (stereo not drawn) [CBK115925C] | 101
CC(=O)N[C@H]1C[C@@H](Cc2cc(CCO)on2)C1(C)C [CBK289243] | 99.7
CCC(=O)N(C)C(CO)c1cc(OC)ccc1Br (stereo not drawn) [CBK304156] | 95.9
CC(=O)N1CCN(C[C@@H]2C=C(C)[C@H](Cc3nnc(C(C)(C)C)o3)C[C@H]2C(C)C)CC1 [CBK289221] | 86
Cc1c(Nc2ncnc3sc4c(c23)CCCC4)c(=O)n(-c2ccccc2)n1C [CBK093912] | 93.1
C=CCNC(=O)Cn1c(-c2ccco2)cc2cccnc21 [CBK282719] | 82.6
O=C1CNC(=O)C2(C/C=C/C[C@H]3COCC[C@@H]3N1)CCN(Cc1ccc(Cl)cn1)CC2 [CBK292132] | 91
COc1ccc(/C=C(/NC(=O)/C=C/c2ccccc2)C(=O)O)cc1 [CBK264996] | 94.8
COc1nccnc1OC1CCN(CCc2ccc3ccccc3c2)CC1 [CBK084264] | 107

SMILES | viability at 28.5 h, 10 µM [%]
Cc1ccc(CSCC(=O)NCCN2CCOCC2)cc1 [CBK269327] | 90.4
C#CCNC(=O)C1CCN(c2nc3ccccc3n2CC=C)CC1 [CBK283925] | 95.4
C=CCNCc1cc2c(C)nn(-c3ccc(F)cc3)c2[nH]c1=O [CBK283117] | 111
CC(C)Nc1nccnc1-c1cccnc1 [CBK037054] | 98.9
O=C(NS(=O)(=O)c1cccc(-c2nnco2)c1)C1C2C3CCC(C3)C12 (stereo not drawn) [CBK306488] | 89
O=C1NCCN1c1cccc(Cl)c1 [CBK016915] | 88.3
O=C1CCN([C@H]2C[C@@H](O)[C@@H](CO)O2)C(=O)N1 [CBK201288] | 93.8
Cc1ccc2nc(-c3ccc(/N=C/c4ccc(/C=N/c5ccc(-c6nc7ccc(C)cc7s6)cc5)cc4)cc3)sc2c1 [CBK261661] | 87.1
Cc1cccc(CN2CCC(NC(=O)Cn3cnnn3)CC2)c1 [CBK305649] | 95.9
Oc1ccccc1Sc1cnccn1 [CBK085840] | 104
OCCC1CNCCN1Cc1ccc(F)c(F)c1 (stereo not drawn) [CBK269824] | 85.6
COc1ccc(CNC(=O)C2CC(=O)N(c3ccc(O)cc3)C2)cc1 (stereo not drawn) [CBK270125] | 96.8
CC1CN(Cc2nc3c(c(=O)n(C)c(=O)n3C)n2CCCc2ccccc2)CC(C)O1 (stereo not drawn) [CBK269349] | 91.7
O=C(Nc1ccc(OCc2ccccc2F)cc1)c1ccc(-n2cnnc2)cc1 [CBK285816] | 81.4
COc1ccc(CNC(N)=O)cc1 [CBK013588] | 104
Cc1csc(C(Cc2cccs2)NC(=O)Cc2ccccn2)n1 (stereo not drawn) [CBK285005] | 94.3
O=C(CO)N1CC2(CCN(CCC(c3ccccc3)c3ccccc3)CC2)c2ccccc21 [CBK131513] | 106
Cc1ccc(-c2nnc(S)n2/N=C\c2ccccc2OCC(=O)O)cc1 [CBK264408] | 90.7
N#Cc1ccccc1Cn1ccc2c(N3CCNCC3)cccc21 [CBK200015C] | 102
Cc1ccc(C(=O)NCc2ccc(-c3n[nH]cc3C(=O)N(C)Cc3ccccc3)cc2)cc1 [CBK285598] | 100
COc1ccc(C(=O)Nc2ccccc2)cc1NC(=O)c1cc(C(F)(F)F)cc(C(F)(F)F)c1 [CBK263465] | 90
Cc1ncncc1C(=O)N1CCc2sccc2C1c1ccccc1 (stereo not drawn) [CBK281386] | 113

SMILES | viability at 28.5 h, 10 µM [%]
CCN(C)c1c(C)nc2c(OCc3ccccc3C(=O)OC)cccn12 [CBK147321] | 95.5
CC(C)(C)c1ccc(-c2cnc3ncccc3c2O)cc1 [CBK089628] | 84.3
O=C(O)c1ccc(C(=O)O)c2c(-c3ccc(C(=O)O)c4c(C(=O)O)ccc(C(=O)O)c34)ccc(C(=O)O)c12 [CBK261267] | 98.4
O=C(NCC1CCCO1)c1ccc2c(c1)C(=O)N(c1ccccc1-c1ccccc1)C2=O (stereo not drawn) [CBK262777] | 86
CC(C)c1nccc(CN2CCC(CCN3CCCC3=O)CC2)n1 [CBK306887] | 116
Cc1ccc(-c2nnc(-c3cccc(S(=O)(=O)N4CCOCC4)c3)o2)cc1 [CBK263215] | 112
O=C(/C(=C\c1ccc([N+](=O)[O-])cc1)n1cncn1)c1ccc(Cl)cc1Cl [CBK262145] | 90.3
Cc1nc2ccccc2c2c1C(=O)N(c1cccc(C(=O)OCC(=O)c3ccccc3Cl)c1)C2=O [CBK265505] | 98.5
Cc1nn(CC(=O)N2CCCCC2C)c(=O)c2cc3sccc3n12 (stereo not drawn) [CBK284141] | 70
O=C(CN1CCN(c2ccc(C(F)(F)F)cn2)CC1)c1ccc2c(c1)OCCO2 [CBK074700] | 98.3
COc1cc(CN2CCN(Cc3cccc([N+](=O)[O-])c3)CC2)c([N+](=O)[O-])cc1OC [CBK263111] | 99.9
CCC(=O)Nc1sc2c(c1-c1nc3ccccc3s1)CCCC2 [CBK287324] | 91.7
O=C(O)Cn1c(=O)n(CC(=O)O)c2ccccc21 [CBK263550] | 83
CCOc1ccc(C(N)CC(=O)O)c2ccccc12 (stereo not drawn) [CBK287120] | 89.1
NC(=O)c1cc(C2CCCN(CC(=O)NCc3cccs3)C2)n[nH]1 (stereo not drawn) [CBK305361] | 86.6
COc1cccc(NC(=O)CN(c2ccccc2)S(=O)(=O)c2ccc(Cl)cc2)c1 [CBK265366] | 102
Cn1nc(C(=O)NCc2ccccc2)cc1C(=O)NCc1ccccc1 [CBK270004] | 92
CC1=NN(c2nc(-c3cccc([N+](=O)[O-])c3)cs2)C(=O)C1/N=N/c1ccc(S(N)(=O)=O)cc1 (stereo not drawn) [CBK262434] | 94
CC(C)n1ncc2cc(C(=O)Nc3ncccc3O)cnc21 [CBK305751] | 109
COc1ccccc1C(=O)Nc1sc2c(c1C(=O)NCc1ccco1)CCCC2 [CBK265105] | 100
CC(C)C(=O)N1CC2(CCN(Cc3ccc(C(C)C)cc3)CC2)c2ccccc21 [CBK122702] | 98.8
N#CCCCN1CCC(Oc2nccnc2OCc2ccc(F)cc2)CC1 [CBK153643] | 115

SMILES | viability at 28.5 h, 10 µM [%]
Cc1ccc(C)c(CSC2CCN(C3CCOCC3)C2=O)c1 (stereo not drawn) [CBK304865] | 103
CCC(=O)N1CCC(c2nc(C3CCCC3)no2)C1 (stereo not drawn) [CBK285458] | 95.3
COc1ccc(CN2C(=S)N(c3ccc(OC)cc3)[C@H]3[C@@H]2[C@H]2OC(=O)[C@@H]3C[C@H]2O)cc1 [CBK288934] | 85.4
CCCC(=O)c1ccc(S(=O)(=O)N2CCCN(Cc3ccc4cccc(O)c4n3)CC2)cc1 [CBK062901] | 102
Cc1nc(-c2ccccc2)sc1CNC(=O)C1CC1C (stereo not drawn) [CBK092369] | 97
Cc1ccc(N2NC(=O)/C(=C/c3ccc(-c4ccc5c(c4)C(=O)NC5=O)o3)C2=O)cc1C [CBK262963] | 81.6
Cc1ccccc1OCC(=O)Nc1ccc(CSc2ccccc2)cc1 [CBK264651] | 93
CCC(C)(C)c1ccc(S(=O)(=O)N2CCCN(Cc3c(-c4ccccc4)noc3C)CC2)cc1 [CBK062888] | 92.8
Cc1ccc(-c2cc(C(=O)N3CCN(C4CCS(=O)(=O)C4)CC3)c3ccccc3n2)cc1 (stereo not drawn) [CBK297153] | 112
CCOC(=O)CC(=O)CSc1nc(C)cc(-c2cccnc2)c1C#N [CBK267460] | 94
COc1ccc(-c2ccccc2NS(=O)(=O)c2ccc3c(c2)CCC(=O)N3)cc1 [CBK286370] | 96.8
O=C(NCCn1cc[nH]c1=O)c1cnc(-c2ccc(Cl)cc2)c(-c2ccc(O)cc2)c1 [CBK036766] | 92
O=C(O)C(c1c[nH]c2ccccc12)N1CCOCC1 (stereo not drawn) [CBK286739] | 83.8
CC(C)(C)c1cc(NC(=O)CN2CCN(c3cccc(Cl)c3)CC2)on1 [CBK304525] | 85.7
Cc1ccc(-c2nnc(C3CCCN(C(=O)C(C)C)C3)o2)s1 (stereo not drawn) [CBK283058] | 96.9
COc1ccc(C(NC(=O)C2CCN(Cc3c[nH]c4ccccc34)CC2)c2ccccn2)cc1 (stereo not drawn) [CBK148033] | 121
Nc1nc(SCC(=O)NCCCO)nc2sc3c(c12)CCC3 [CBK264952] | 88.7
O=C(CCCOc1ccccc1)Nc1cccc(N2CCNCC2)c1 [CBK028290T] | 95.4
COCCN1CCn2c(nc3cc(NC(=O)c4ccco4)ccc32)C1 [CBK267990] | 88.2
CCn1cc(C2CN(S(=O)(=O)c3cccc(C(C)C)c3)CCO2)cn1 (stereo not drawn) [CBK304227] | 105
Cc1nonc1/N=N/N(CC(=O)N1CCOCC1)c1nonc1C [CBK262399] | 103
